These molecules were tested against T1, USP7 (Homo sapiens, UniProt Q93009, C315A) (assay: Inhibition of USP7 by Fluorescence Intensity (FLINT) readings, Ubiquitin-Rhodamine-110 substrate). Conditions: 0.25 nM His-His-USP7 (aa208-560, [C315A]); compound 60 minutes at 30° C.; 500 nM Ubiquitin-Rhodamine substrate; 11-point curves.
T1 construct: 0.25 nM His-His-USP7 (aa208-560, [C315A]) was incubated with compound; His-His (N)
Format: biochemical
Description: USP7 activity was measured using Rhodamine-110 c-terminal labelled Ubiquitin as a substrate (Viva Biosciences). Incubation with USP7 results in the release of Rhodamine-110 leading to an increase in fluorescence which can be used in the continuous measurement of USP7 activity.
The USP7 reactions were performed in a 50 μL volume, in 384 well black solid low binding plates (Corning #3575). The reaction buffer consisted of 100 mM Bicine pH 8.0, 0.01% TritonX 100, 1 mM TCEP, and 10% DMSO.
0.25 nM His-His-USP7 (aa208-560, [C315A]) was incubated with compound (final concentration 10% DMSO) for 60 minutes at 30° C. The reaction was then initiated by the addition of 500 nM Ubiquitin-Rhodamine-10 substrate and the plate read every 3 minutes for 21 minutes to measure the release of Rhodamine-110. Fluorescence Intensity (FLINT) readings were measured using a Biomek Neo plate reader (Ex. 485 nm. Em. 535 nm).
The inhibition of increasing doses of compound was expressed as a percentage reduction in kinetic rate compared to the kinetic rates established between ‘DMSO only’ and ‘total inhibition’ controls (no USP7). The inhibitory concentrations that gave a 50% reduction in kinetic rate (IC50) were determined, from 11-point dose response curves, in XL-Fit using a 4-Parameter Logistic Model (Sigmoidal Dose-Response Model).

T1 sequence (Q93009 208-560 C315A): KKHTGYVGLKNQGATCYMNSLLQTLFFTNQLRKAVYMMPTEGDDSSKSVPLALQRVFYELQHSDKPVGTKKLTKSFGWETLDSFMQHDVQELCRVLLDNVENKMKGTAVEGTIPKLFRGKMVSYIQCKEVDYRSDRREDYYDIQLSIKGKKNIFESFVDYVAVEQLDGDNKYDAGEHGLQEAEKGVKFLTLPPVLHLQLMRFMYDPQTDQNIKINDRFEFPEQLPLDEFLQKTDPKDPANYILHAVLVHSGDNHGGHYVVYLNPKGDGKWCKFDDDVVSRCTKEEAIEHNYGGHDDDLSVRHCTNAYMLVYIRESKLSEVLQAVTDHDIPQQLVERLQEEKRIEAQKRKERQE

Row | Structure (SMILES) | IC50 [nM]
1 | O=C(C1CCCC(O)C1c1ccccc1)N1CCC(O)(Cn2cnc3c(ccn3-c3ccccc3)c2=O)CC1 (single isomer, unassigned) [Example 56, (1S,2S,3S or 1R,2R,3R)-3-[[4-hydroxy-1-[3-hydroxy-2-phenyl-cyclohexanecarbonyl]-4-piperidyl]methyl]-7-phenyl-pyrrolo[2,3-d]pyrimidin-4-one] | 2550
2 | Cn1ccnc1[C@@H]1CCCC[C@H]1C(=O)N1CCC(O)(Cn2cnc3c(ccn3-c3ccccc3)c2=O)CC1 (single isomer, unassigned) [Example 57, 3-[[4-hydroxy-1-[trans-2-(1-methylimidazol-2-yl)cyclohexanecarbonyl]-4-piperidyl]methyl]-7-phenyl-pyrrolo[2,3-d]pyrimidin-4-one] | 28400
3 | Cn1ccnc1[C@@H]1CCCC[C@H]1C(=O)N1CCC(O)(Cn2cnc3c(ccn3-c3ccccc3)c2=O)CC1 (single isomer, unassigned) [Example 58, 3-[[4-hydroxy-1-[trans-2-(1-methylimidazol-2-yl)cyclohexanecarbonyl]-4-piperidyl]methyl]-7-phenyl-pyrrolo[2,3-d]pyrimidin-4-one] | 20300
4 | COc1ccc(-n2ccc3c(=O)n(CC4(O)CCN(C(=O)[C@@H]5C(C)=CCC[C@H]5c5cccs5)CC4)cnc32)cc1 (single isomer, unassigned) [Example 59, 3-[[4-hydroxy-1-[trans-2-methyl-6-(2-thienyl)cyclohex-2-ene-1-carbonyl]-4-piperidyl]methyl]-7-(4-methoxyphenyl)pyrrolo[2,3-d]pyrimidin-4-one] | 65.2
5 | COc1ccc(-n2ccc3c(=O)n(CC4(O)CCN(C(=O)C5C(C)=CCCC5c5cccs5)CC4)cnc32)cc1 (single isomer, unassigned) [Example 60, 3-[[4-hydroxy-1-[trans-2-methy-6-(2-thienyl)cyclohex-2-ene-1-carbonyl]-4-piperidyl]methyl]-7-(4-methoxyphenyl)pyrrolo[2,3-d]pyrimidin-4-one] | 725
6 | COc1ccc(-n2ccc3c(=O)n(CC4(O)CCN(C(=O)[C@@H]5C(C)=CCC[C@H]5c5ccsc5)CC4)cnc32)cc1 (single isomer, unassigned) [Example 61, 3-[[4-hydroxy-1-[trans-2-methyl-6-(3-thienyl)cyclohex-2-ene-1-carbonyl]-4-piperidyl]methyl]-7-(4-methoxyphenyl)pyrrolo[2,3-d]pyrimidin-4-one] | 72.3
7 | COc1ccc(-n2ccc3c(=O)n(CC4(O)CCN(C(=O)[C@@H]5C(C)=CCC[C@H]5c5ccsc5)CC4)cnc32)cc1 (single isomer, unassigned) [Example 62, 3-[[4-hydroxy-1-[trans-2-methyl-6-(3-thienyl)cyclohex-2-ene-1-carbonyl]-4-piperidyl]methyl]-7-(4-methoxyphenyl)pyrrolo[2,3-d]pyrimidin-4-one] | 682
8 | COc1ccc(-n2ccc3c(=O)n(CC4(O)CCN(C(=O)C5CCCCC5c5nccn5C)CC4)cnc32)cc1 (single isomer, unassigned) [Example 69, 3-[[4-hydroxy-1-trans-2-(1-methylimidazol-2-yl)cyclohexanecarbonyl]-4-piperidyl]methyl-7-(4-methoxyphenyl)pyrrolo[2,3-d]pyrimidin-4-one] | 10500
9 | COc1ccc(-n2ccc3c(=O)n(CC4(O)CCN(C(=O)[C@@H]5CCCC[C@H]5c5nccn5C)CC4)cnc32)cc1 (single isomer, unassigned) [Example 70, 3-[[4-hydroxy-1-[trans-2-(1-methylimidazol-2-yl)cyclohexanecarbonyl]-4-piperidyl]methyl]-7-(4-methoxyphenyl)pyrrolo[2,3-d]pyrimidin-4-one] | 9230
10 | COc1ccc(-n2ccc3c(=O)n(CC4(O)CCN(C(=O)[C@@H]5CCC(F)(F)C[C@H]5c5cccs5)CC4)cnc32)cc1 (single isomer, unassigned) [Example 73, 3-[[1-[trans-4,4-difluoro-2-(2-thienyl)cyclohexanecarbonyl]-4-hydroxy-4-piperidyl]methyl]-7-(4-methoxyphenyl)pyrrolo[2,3-d]pyrimidin-4-one] | 83.8
11 | O=C([C@@H]1CC(F)(F)CC[C@H]1c1ccccc1)N1CCC(O)(Cn2cnc3c(-c4ccccc4)scc3c2=O)CC1 (single isomer, unassigned) [Example 78, 3-[[1-[trans-5,5-difluoro-2-phenyl-cyclohexanecarbonyl]-4-hydroxy-4-piperidyl]methyl]-7-phenyl-thieno[3,4-d]pyrimidin-4-one] | 10300
12 | O=C([C@@H]1CC(F)(F)CC[C@H]1c1ccccc1)N1CCC(O)(Cn2cnc3c(-c4ccccc4)scc3c2=O)CC1 (single isomer, unassigned) [Example 79, 3-[[1-[trans-5,5-difluoro-2-phenyl-cyclohexanecarbonyl]-4-hydroxy-4-piperidyl]methyl]-7-phenyl-thieno[3,4-d]pyrimidin-4-one] | 60.1
13 | CCn1cc([C@@H]2CC(F)(F)CC[C@H]2C(=O)N2CCC(O)(Cn3cnc4c(-c5ccccc5)scc4c3=O)CC2)cn1 (single isomer, unassigned) [Example 81, 3-[[1-[trans-2-(1-ethylpyrazol-4-yl)-4,4-difluoro-cyclohexanecarbonyl]-4-hydroxy-4-piperidyl]methyl]-7-phenyl-thieno[3,4-d]pyrimidin-4-one] | 76300
14 | O=C([C@@H]1CCC(F)(F)C[C@H]1c1cscn1)N1CCC(O)(Cn2cnc3c(-c4ccccc4)scc3c2=O)CC1 (single isomer, unassigned) [Example 82, 3-[[1-[trans-4,4-difluoro-2-thiazol-4-yl-cyclohexanecarbonyl]-4-hydroxy-4-piperidyl]methyl]-7-phenyl-thieno[3,4-d]pyrimidin-4-one] | 10100
15 | O=C([C@@H]1CCC(F)(F)C[C@H]1c1cscn1)N1CCC(O)(Cn2cnc3c(-c4ccccc4)scc3c2=O)CC1 (single isomer, unassigned) [Example 83, 3-[[1-[trans-4,4-difluoro-2-thiazol-4-yl-cyclohexanecarbonyl]-4-hydroxy-4-piperidyl]methyl]-7-phenyl-thieno[3,4-d]pyrimidin-4-one] | 632
16 | O=C([C@@H]1CCC(F)(F)C[C@H]1c1ccco1)N1CCC(O)(Cn2cnc3c(-c4ccccc4)scc3c2=O)CC1 (single isomer, unassigned) [Example 86, 3-[[1-[trans-4,4-difluoro-2-(2-furyl)cyclohexanecarbonyl]-4-hydroxy-4-piperidyl]methyl]-7-phenyl-thieno[3,4-d]pyrimidin-4-one] | 125
17 | O=C([C@@H]1CCC(F)(F)C[C@H]1c1ccsc1)N1CCC(O)(Cn2cnc3c(-c4ccccc4)scc3c2=O)CC1 (single isomer, unassigned) [Example 88, 3-[[1-[trans-4,4-difluoro-2-(3-thienyl)cyclohexanecarbonyl]-4-hydroxy-4-piperidyl]methyl]-7-phenyl-thieno[3,4-d]pyrimidin-4-one] | 310
18 | CC1(C)CC[C@@H](C(=O)N2CCC(O)(Cn3cnc4c(-c5ccccc5)scc4c3=O)CC2)[C@H](c2ccccc2)C1 (single isomer, unassigned) [Example 99, 3-[[1-(trans-4,4-dimethyl-2-phenyl-cyclohexanecarbonyl)-4-hydroxy-4-piperidyl]methyl]-7-phenyl-thieno[3,4-d]pyrimidin-4-one] | 268
19 | Cn1ccc2c(=O)n(CC3(O)CCN(C(=O)[C@@H]4CCC(F)(F)C[C@H]4c4ccccc4)CC3)cnc21 (single isomer, unassigned) [Example 112, 3-[[1-[trans-4,4-difluoro-2-phenyl-cyclohexanecarbonyl]-4-hydroxy-4-piperidyl]methyl]-7-methyl-pyrrolo[2,3-d]pyrimidin-4-one] | 471
20 | CC(C)n1ccc2c(=O)n(CC3(O)CCN(C(=O)[C@@H]4CCC(F)(F)C[C@H]4c4ccccc4)CC3)cnc21 (single isomer, unassigned) [Example 113, 3-[[1-[trans-4,4-difluoro-2-phenyl-cyclohexanecarbonyl]-4-hydroxy-4-piperidyl]methyl]-7-isopropyl-pyrrolo[2,3-d]pyrimidin-4-one] | 456
21 | O=C([C@@H]1CCC(F)(F)C[C@H]1c1ccccc1)N1CCC(O)(Cn2cnc3c(ccn3C3CC3)c2=O)CC1 (single isomer, unassigned) [Example 116, 7-cyclopropyl-3-[[1-[trans-4,4-difluoro-2-phenyl-cyclohexanecarbonyl]-4-hydroxy-4-piperidyl]methyl]pyrrolo[2,3-d]pyrimidin-4-one] | 205
22 | COc1ccc(-n2ccc3c(=O)n(CC4(O)CCN(C(=O)[C@@H]5CCC(=O)N(C)[C@H]5c5ccccc5)CC4)cnc32)cc1 (single isomer, unassigned) [Example 118, 3-{[4-hydroxy-1-(trans-1-methyl-6-oxo-2-phenylpiperidine-3-carbonyl)piperidin-4-yl]methyl}-7-(4-methoxyphenyl)-3,7-dihydro-4H-pyrrolo[2,3-d]pyrimidin-4-one] | 4640
23 | COc1ccc(-n2ccc3c(=O)n(CC4(O)CCN(C(=O)C5CCCCN5c5ccccc5)CC4)cnc32)cc1 (centres unmarked) [Example 10, 3-[[4-hydroxy-1-(1-phenylpiperidine-2-carbonyl)-4-piperidyl]methyl]-7-(4-methoxyphenyl)pyrrolo[2,3-d]pyrimidin-4-one] | 425

From patent US11332472B2, “Substituted piperidines as inhibitors of ubiquitin specific protease 7” (LES LABORATOIRES SERVIER, priority 2017, dated 2022)
